Source: the supplement of paper PMC10883282
± gives the standard deviation of the averaged measurements.

Test system: RD
Experiment: relative viability vs DMSO control (72 h) (fraction); higher = more viable cells
Summary of the method: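 Sarcoma cell lines were seeded in 384-well plates at densities set to reach 80–90% confluence. After 24 h, 2.5 µl of serially diluted compound was added (source plates 10 mM to 0.0002 mM), and plates were held 72 h at 37 °C, 5% CO2, with 0.1% DMSO vehicle and a 5 µM positive control. Relative viability came from ATPLite readings as percent growth, averaged over up to triplicate wells. Data were rescaled so full viability equals 1 and none equals 0.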

| Structure (SMILES) | relative viability (0.00017 µM) | relative viability (0.00051 µM) | relative viability (0.00152 µM) | relative viability (0.00457 µM) | relative viability (0.01372 µM) | relative viability (0.04115 µM) | relative viability (0.1235 µM) | relative viability (0.3704 µM) | relative viability (1.111 µM) | relative viability (3.333 µM) | relative viability (10 µM) |
| --- | --- | --- | --- | --- | --- | --- | --- | --- | --- | --- | --- |
| CO[C@H]1C[C@@H]2CC[C@@H](C)[C@@](O)(O2)C(=O)C(=O)N2CCCC[C@H]2C(=O)O[C@H]([C@H](C)C[C@@H]2CC[C@@H](OP(C)(C)=O)[C@H](OC)C2)CC(=O)[C@H](C)/C=C(\C)[C@@H](O)[C@@H](OC)C(=O)[C@H](C)C[C@H](C)/C=C/C=C/C=C/1C [Ridaforolimus] | 1.06 ± 0.032 | 1.05 ± 0.049 | 0.921 ± 0.01 | 0.847 ± 0.02 | 0.753 ± 0.038 | 0.75 ± 0.036 | 0.764 ± 0.029 | 0.71 ± 0.053 | 0.715 ± 0.071 | 0.701 ± 0.053 | 0.683 ± 0.05 |
| O=C(Cc1ccc(-c2ccc(OCCN3CCOCC3)cc2)cn1)NCc1ccccc1 [KX2-391] | 1.03 ± 0.04 | 1.07 ± 0.055 | 1.08 ± 0.04 | 1.07 ± 0.066 | 1.02 ± 0.022 | 0.633 ± 0.022 | 0.346 ± 0.077 | 0.296 ± 0.015 | 0.304 ± 0.0065 | 0.308 ± 0.027 | 0.286 ± 0.034 |
| COc1cc2nccc(Oc3ccc(NC(=O)Nc4cc(C)on4)c(Cl)c3)c2cc1OC [Tivozanib] | 1.12 ± 0.07 | 1.12 ± 0.085 | 1.13 ± 0.009 | 1.13 ± 0.068 | 1.135 ± 0.011 | 1.14 ± 0.016 | 1.14 ± 0.05 | 1.18 ± 0.052 | 1.169 ± 0.0077 | 1.17 ± 0.018 | 0.814 ± 0.019 |
| CCc1cc2c(cc1N1CCC(N3CCOCC3)CC1)C(C)(C)c1[nH]c3cc(C#N)ccc3c1C2=O [Alectinib] | 1.12 ± 0.056 | 1.09 ± 0.022 | 1.09 ± 0.051 | 1.1 ± 0.044 | 1.11 ± 0.049 | 1.11 ± 0.038 | 1.13 ± 0.045 | 1.11 ± 0.044 | 1.09 ± 0.024 | 1.054 ± 0.0068 | 1.05 ± 0.037 |
| COCc1c(-c2cc3cc(C)cc(OC)c3s2)c2c(N)ncnn2c1CN1CCNC(=O)C1 [Rogaratinib] | 1.03 ± 0.022 | 1.09 ± 0.017 | 1.08 ± 0.024 | 1.11 ± 0.037 | 1.09 ± 0.033 | 1.12 ± 0.016 | 1.1 ± 0.057 | 1.08 ± 0.03 | 1.07 ± 0.047 | 0.923 ± 0.042 | 0.569 ± 0.015 |
| CN1CCC(COc2cnc(-c3cccc(Cn4nc(-c5cccc(C#N)c5)ccc4=O)c3)nc2)CC1 [Tepotinib] | 1.03 ± 0.049 | 1.1 ± 0.084 | 1.09 ± 0.039 | 1.1 ± 0.055 | 1.12 ± 0.031 | 1.13 ± 0.049 | 1.12 ± 0.093 | 1.14 ± 0.029 | 1.1 ± 0.065 | 1.11 ± 0.031 | 0.941 ± 0.07 |
| Cc1cnc(Nc2ccc(OCCN3CCCC3)cc2)nc1Nc1cccc(S(=O)(=O)NC(C)(C)C)c1 [Fedratinib] | 1.07 ± 0.031 | 1.09 ± 0.03 | 1.12 ± 0.042 | 1.13 ± 0.048 | 1.12 ± 0.064 | 1.14 ± 0.058 | 1.09 ± 0.09 | 0.785 ± 0.066 | 0.445 ± 0.025 | 0.0678 ± 0.011 | 0.00303 ± 0.0004 |
| Cn1cnc2c(F)c(Nc3ccc(Br)cc3F)c(C(=O)NOCCO)cc21 [Binimetinib] | 1.01 ± 0.049 | 1 ± 0.04 | 0.978 ± 0.037 | 0.89 ± 0.054 | 0.798 ± 0.05 | 0.746 ± 0.028 | 0.677 ± 0.016 | 0.627 ± 0.036 | 0.588 ± 0.015 | 0.534 ± 0.035 | 0.507 ± 0.012 |
| C[C@@H]1CCN(C(=O)CC#N)C[C@@H]1N(C)c1ncnc2[nH]ccc12 [Tofacitinib] | 1.05 ± 0.051 | 1.08 ± 0.064 | 1.1 ± 0.072 | 1.12 ± 0.055 | 1.13 ± 0.068 | 1.13 ± 0.063 | 1.13 ± 0.09 | 1.11 ± 0.029 | 1.14 ± 0.065 | 1.14 ± 0.051 | 1.13 ± 0.056 |
| Nc1cc(C(F)(F)F)c(-c2cc(N3CCOCC3)nc(N3CCOCC3)n2)cn1 [Buparlisib] | 1.09 ± 0.015 | 1.06 ± 0.025 | 1.09 ± 0.055 | 1.08 ± 0.05 | 1.07 ± 0.028 | 1.09 ± 0.045 | 1 ± 0.046 | 0.868 ± 0.045 | 0.428 ± 0.042 | 0.133 ± 0.011 | 0.126 ± 0.015 |
| Cn1cc(-c2cc3c(N4CCN(c5ncc([C@@](C)(N)c6ccc(F)cc6)cn5)CC4)ncnn3c2)cn1 [Avapritinib] | 1.04 ± 0.055 | 1.03 ± 0.031 | 1.06 ± 0.02 | 1.05 ± 0.041 | 1.05 ± 0.033 | 1.03 ± 0.045 | 1.04 ± 0.02 | 1.06 ± 0.043 | 1.03 ± 0.043 | 0.939 ± 0.03 | 0.813 ± 0.087 |
| C=CC(=O)N1CCC([C@@H]2CCNc3c(C(N)=O)c(-c4ccc(Oc5ccccc5)cc4)nn32)CC1 [Zanubrutinib] | 0.942 ± 0.064 | 0.952 ± 0.048 | 0.964 ± 0.068 | 0.958 ± 0.058 | 0.952 ± 0.046 | 0.96 ± 0.079 | 0.926 ± 0.075 | 0.893 ± 0.11 | 0.876 ± 0.1 | 0.847 ± 0.081 | 0.843 ± 0.06 |
| CCCS(=O)(=O)Nc1ccc(F)c(C(=O)c2c[nH]c3ncc(-c4ccc(Cl)cc4)cc23)c1F [Vemurafenib] | 1.14 ± 0.071 | 1.12 ± 0.08 | 1.14 ± 0.073 | 1.13 ± 0.073 | 1.12 ± 0.059 | 1.13 ± 0.061 | 1.11 ± 0.053 | 1.12 ± 0.053 | 1.14 ± 0.07 | 1.11 ± 0.036 | 0.785 ± 0.079 |
| COc1cc2c(Oc3ccc4[nH]c(C)cc4c3F)ncnc2cc1OCCCN1CCCC1 [Cediranib] | 1.09 ± 0.043 | 1.1 ± 0.058 | 1.09 ± 0.015 | 1.15 ± 0.057 | 1.09 ± 0.076 | 1.13 ± 0.046 | 1.1 ± 0.03 | 1.04 ± 0.06 | 1 ± 0.077 | 1.03 ± 0.13 | 0.962 ± 0.078 |
| CC[C@H](Nc1ncnc2[nH]cnc12)c1nc2cccc(F)c2c(=O)n1-c1ccccc1 [Idelalisib] | 1.08 ± 0.039 | 1.11 ± 0.035 | 1.12 ± 0.06 | 1.13 ± 0.042 | 1.13 ± 0.036 | 1.13 ± 0.039 | 1.1 ± 0.076 | 1.12 ± 0.062 | 1.1 ± 0.066 | 1.04 ± 0.06 | 0.927 ± 0.029 |
| Cc1cc(Nc2ncnc3ccc(NC4=NC(C)(C)CO4)cc23)ccc1Oc1ccn2ncnc2c1 [Tucatinib] | 1.08 ± 0.071 | 1.09 ± 0.076 | 1.11 ± 0.04 | 1.08 ± 0.04 | 1.1 ± 0.026 | 1.1 ± 0.017 | 1.07 ± 0.067 | 1.11 ± 0.073 | 1.14 ± 0.081 | 1.18 ± 0.063 | 1.15 ± 0.061 |
| N#CC[C@H](C1CCCC1)n1cc(-c2ncnc3[nH]ccc23)cn1 [Ruxolitinib] | 0.965 ± 0.052 | 0.972 ± 0.049 | 0.965 ± 0.041 | 0.977 ± 0.059 | 0.97 ± 0.034 | 0.979 ± 0.044 | 0.973 ± 0.051 | 0.965 ± 0.058 | 0.976 ± 0.056 | 0.976 ± 0.092 | 0.895 ± 0.055 |
| Cc1ccc(F)c(NC(=O)Nc2ccc(-c3cccc4[nH]nc(N)c34)cc2)c1 [Linifanib] | 1.07 ± 0.027 | 1.07 ± 0.028 | 1.08 ± 0.039 | 1.124 ± 0.01 | 1.12 ± 0.025 | 1.1 ± 0.033 | 1.14 ± 0.018 | 1.14 ± 0.031 | 1.12 ± 0.031 | 1.11 ± 0.042 | 1.13 ± 0.029 |
| Cc1nc(NC(=O)N2CCC[C@H]2C(N)=O)sc1-c1ccnc(C(C)(C)C(F)(F)F)c1 [Alpelisib] | 1.04 ± 0.032 | 1.068 ± 0.0091 | 1.04 ± 0.056 | 1.07 ± 0.041 | 1.05 ± 0.052 | 1.03 ± 0.1 | 0.932 ± 0.045 | 0.851 ± 0.083 | 0.7 ± 0.055 | 0.594 ± 0.024 | 0.557 ± 0.044 |
